Experimental data as given in BindingDB's records for patent US10538528 (Taiho Pahrmaceutical Co., Ltd., 2020).

Target: RAC-alpha serine/threonine-protein kinase (Homo sapiens, UniProt P31749)
Assay: Kinase Activity Assay
Description: Akt1 was prepared and assays of inhibitory activity of the compound according to the present invention against Akt1 kinase activity in vitro were conducted according to the method described in Biochem. J., vol. 385, pp. 399-408, 2005 and Cancer Res., vol. 68, pp. 2366-2374, 2008. In the preparation of Akt1 protein, human Akt1 tagged with the middle T antigen was expressed in an insect cell Sf9, Akt1 was prepared through affinity purification and activation by PDK1, and the resultant was stored at −80° C. until the inhibition assays of the compounds. In the inhibition assay of the compounds, Akt1 and the compound according to the present invention were subjected to pre-incubation at 25° C. for 120 minutes in a reaction buffer (15 mM Tris-HCl, pH 7.5, 0.01% Tween-20, 2 mM DTT). Subsequently, biotinylated Crosstide (biotin-[…], Millipore), MgCl2, and ATP were added as substrates at the final concentration of 500 nM, 10 mM, and 150 μM, respectively, and the reaction was allowed to proceed at 25° C. for 60 minutes. […] In the end, the fluorescence levels irradiated with an excitation light of 337 nm were assayed at two different wavelength levels (i.e., 620 nm and 665 nm) using PI-HERAstar FS (BMG LABTECH) or PHERAstar (BMG LABTECH).

Sequence of RAC-alpha serine/threonine-protein kinase (P31749 whole entry): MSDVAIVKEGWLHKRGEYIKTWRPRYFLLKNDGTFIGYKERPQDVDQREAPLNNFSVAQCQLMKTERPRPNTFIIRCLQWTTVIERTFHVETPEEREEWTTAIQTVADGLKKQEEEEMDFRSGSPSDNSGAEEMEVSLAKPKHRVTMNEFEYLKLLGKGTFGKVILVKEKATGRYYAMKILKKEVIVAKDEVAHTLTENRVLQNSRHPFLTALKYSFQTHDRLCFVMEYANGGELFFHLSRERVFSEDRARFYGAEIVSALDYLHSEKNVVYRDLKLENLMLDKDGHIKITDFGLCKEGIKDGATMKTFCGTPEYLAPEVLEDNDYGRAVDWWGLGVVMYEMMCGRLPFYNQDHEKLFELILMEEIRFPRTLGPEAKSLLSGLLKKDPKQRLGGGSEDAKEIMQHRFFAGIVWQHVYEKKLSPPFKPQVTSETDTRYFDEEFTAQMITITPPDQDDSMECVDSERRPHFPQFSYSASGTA

IC50: 52.2 nM
Compound: CN(C)CCn1cc(-c2ccc(F)c(C(F)(F)F)c2)nc1C1CCN(c2ncnc3c2C(C)(C)C(=O)N3)CC1 [US10538528, Compound A]
